Measured values taken from BindingDB's records for patent US11691989 (Ascentage Pharma (Suzhou), 2023).

Target: T1, Induced myeloid leukemia cell differentiation protein Mcl-1 [171-323] (Homo sapiens, UniProt Q07820)
T1 construct: 171-323
Assay: Inhibition of Mcl-1 by fluorescence polarization (FP) assay
Experimental: The relative binding potency of representative Compounds of the Disclosure was determined by a fluorescence polarization (FP) assay. The method used a fluorescein labelled peptide (FAM-Bid) which binds to the Mcl-1 protein leading to an increased anisotropy measured in milli-polarization (mP) values using a plate reader. […] A 10-points serial dilution of each compound was prepared in DMSO and 5 μL solution was transferred into flat bottomed, 96-well back plate (final DMSO concentration […]). 120 μL of Buffer (PBS, 0.01% BGG (Sigma Cat. #SRE0011), 0.01% Triton X-100), containing the Fluorescein labelled peptide (Final concentration 2 nM) and Mcl-1 protein (final concentration 20 nM) was then added. […] 10-points dose response curves were plotted with GraphPad software using Sigmoidal Dose-Response Model and the IC50 values were determined by nonlinear regression fitting of the competition curves.

T1 sequence (Q07820 171-323): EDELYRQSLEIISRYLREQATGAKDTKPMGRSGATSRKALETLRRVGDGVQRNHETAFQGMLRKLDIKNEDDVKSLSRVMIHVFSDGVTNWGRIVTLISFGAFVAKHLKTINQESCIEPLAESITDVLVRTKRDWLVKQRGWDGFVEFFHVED

Structure (SMILES) | IC50
Cc1c2c(nn1C)CSCc1cc(n(C)n1)CSc1cc(c3ccc(F)cc3c1)OCCCn1c(C(=O)O)cc3c-2c(Cl)ccc31 [US11691989, Compound 13] | 19 nM
Cc1c(C(=O)O)n2c3ccc(Cl)c(c13)-c1c(nn(C)c1C)CSCc1cc(n(C(C)C)n1)CSc1cc(c3ccc(F)cc3c1)OCCC2 [US11691989, Compound 17] | 15 nM
